Experimental data from ChEMBL document CHEMBL4387740, “Discovery of ABT-957: 1-Benzyl-5-oxopyrrolidine-2-carboxamides as selective calpain inhibitors with enhanced metabolic stability” (Bioorg Med Chem Lett, 2019).
Values belong to the compound of their own block, whether it stands above or below them. Active and inactive are the calls of the source. The calls are words filed in the database; no cut-off is given here.

Legend:
[1] = Elimination half life in CD-1 mouse at 2 mg/kg, iv; assay type: ADME, organism-based; conditions: in vivo, read-out: beta t1/2 (converted)
[2] = Metabolic stability in human liver cytosol assessed as hydroxyamide metabolite formation; assay type: ADME, subcellular
[3] = Fraction unbound in human plasma; assay type: ADME, cell-free
[4] = Apparent permeability in human Caco2 cells; assay type: ADME, cell-based; conditions: Caco-2, read-out: permeability
[5] = Intrinsic clearance in human liver microsomes; assay type: ADME, Microsome; conditions: read-out: CLH
[6] = AUC (0 to infinity) in cynomolgus monkey at 1 mg/kg, iv; assay type: ADME, organism-based, Macaca fascicularis; set-up: dose 1 mg/kg, time infinity, route intravenous; conditions: in vivo
[7] = Metabolic stability in dog liver microsomes; assay type: ADME, Canis lupus familiaris, Microsome
[8] = Elimination half life in cynomolgus monkey at 3 mg/kg, po; assay type: ADME, organism-based, Macaca fascicularis; conditions: in vivo, read-out: beta t1/2 (converted)
Homo sapiens [9] = organism: Homo sapiens; experiment: Selectivity ratio, ratio of Ki for CatK (unknown origin) to Ki for Cal1 (unknown origin)
[10] = target: T1, Calpain-1 catalytic subunit (Homo sapiens, UniProt P07384); experiment: Inhibition of Cal1 (unknown origin)
T1 sequence (P07384 whole entry): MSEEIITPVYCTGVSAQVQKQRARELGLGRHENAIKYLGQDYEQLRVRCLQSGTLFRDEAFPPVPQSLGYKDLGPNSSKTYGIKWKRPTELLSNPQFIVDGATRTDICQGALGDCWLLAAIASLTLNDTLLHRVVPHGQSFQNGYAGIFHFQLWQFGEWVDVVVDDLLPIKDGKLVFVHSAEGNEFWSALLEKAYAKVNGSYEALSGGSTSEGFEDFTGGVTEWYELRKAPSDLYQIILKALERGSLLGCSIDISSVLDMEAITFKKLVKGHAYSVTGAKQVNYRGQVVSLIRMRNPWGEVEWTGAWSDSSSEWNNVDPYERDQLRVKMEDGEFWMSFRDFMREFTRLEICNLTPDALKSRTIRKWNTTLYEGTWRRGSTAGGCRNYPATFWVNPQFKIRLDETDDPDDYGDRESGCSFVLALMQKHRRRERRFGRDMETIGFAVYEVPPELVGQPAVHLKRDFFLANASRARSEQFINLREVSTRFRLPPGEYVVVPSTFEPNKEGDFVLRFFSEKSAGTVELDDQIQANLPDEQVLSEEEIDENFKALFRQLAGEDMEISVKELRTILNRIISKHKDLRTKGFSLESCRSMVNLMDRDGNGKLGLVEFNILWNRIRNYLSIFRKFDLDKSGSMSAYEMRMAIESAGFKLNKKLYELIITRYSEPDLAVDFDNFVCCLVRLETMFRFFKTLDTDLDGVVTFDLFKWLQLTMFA

[11] = Volume of distribution at steady state in cynomolgus monkey at 1 mg/kg, iv; assay type: ADME, organism-based, Macaca fascicularis; conditions: in vivo, read-out: Vdss
[12] = AUC (0 to infinity) in Sprague-Dawley rat at 2 mg/kg, iv; assay type: ADME, organism-based; set-up: dose 2 mg/kg, time infinity, route intravenous; conditions: in vivo
[13] = Metabolic stability in cynomolgus monkey liver microsomes; assay type: ADME, Macaca fascicularis, Microsome
[14] = Metabolic stability in cynomolgus monkey liver cytosol assessed as hydroxyamide metabolite formation; assay type: ADME, subcellular, Macaca fascicularis
[15] = Cmax in Sprague-Dawley rat at 2 mg/kg, po; assay type: ADME, organism-based; set-up: dose 2 mg/kg, route oral; conditions: in vivo
[16] = Cmax in Beagle dog at 1 mg/kg, po; assay type: ADME, organism-based, Canis lupus familiaris; set-up: dose 1 mg/kg, route oral; conditions: in vivo
[17] = Volume of distribution at steady state in Sprague-Dawley rat at 2 mg/kg, iv; assay type: ADME, organism-based; conditions: in vivo, read-out: Vdss
[18] = Plasma clearance in Sprague-Dawley rat at 2 mg/kg, iv; assay type: ADME, organism-based
Homo sapiens [19] = organism: Homo sapiens; experiment: Selectivity ratio, ratio of Ki for CatB (unknown origin) to Ki for Cal1 (unknown origin)
[20] = Plasma clearance in CD-1 mouse at 2 mg/kg, iv; assay type: ADME, organism-based
[21] = Metabolic stability in dog hepatocytes; assay type: ADME, cell-based, Canis lupus familiaris, Hepatocyte
[22] = Elimination half life in Sprague-Dawley rat at 2 mg/kg, po; assay type: ADME, organism-based; conditions: in vivo, read-out: beta t1/2 (converted)
BCRP (ABCG2) = target: T2, BCRP (ABCG2) (Homo sapiens, UniProt Q9UNQ0); experiment: Substrate activity at BCRP (unknown origin) expressed in MDCK2 cells assessed as efflux ratio of permeability across basolateral to apical over apical to basolateral side; assay type: ADME, cell-based
T2 sequence (Q9UNQ0 whole entry): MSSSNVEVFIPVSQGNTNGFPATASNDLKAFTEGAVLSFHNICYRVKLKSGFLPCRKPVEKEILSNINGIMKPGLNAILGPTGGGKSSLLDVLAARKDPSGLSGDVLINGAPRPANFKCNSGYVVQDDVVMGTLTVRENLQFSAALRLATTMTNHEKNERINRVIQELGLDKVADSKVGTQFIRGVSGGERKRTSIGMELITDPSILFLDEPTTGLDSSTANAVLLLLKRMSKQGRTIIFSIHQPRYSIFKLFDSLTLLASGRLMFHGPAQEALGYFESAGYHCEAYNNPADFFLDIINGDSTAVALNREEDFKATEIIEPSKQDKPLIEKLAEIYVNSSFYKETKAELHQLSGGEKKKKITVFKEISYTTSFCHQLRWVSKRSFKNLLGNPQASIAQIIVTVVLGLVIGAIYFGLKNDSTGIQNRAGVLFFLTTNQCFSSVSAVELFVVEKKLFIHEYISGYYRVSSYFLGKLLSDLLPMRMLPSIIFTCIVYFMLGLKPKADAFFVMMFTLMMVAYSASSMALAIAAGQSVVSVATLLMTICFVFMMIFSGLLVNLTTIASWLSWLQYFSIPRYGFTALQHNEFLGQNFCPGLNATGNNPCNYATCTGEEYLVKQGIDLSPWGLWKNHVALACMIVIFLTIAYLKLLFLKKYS

[23] = AUC (0 to infinity) in cynomolgus monkey at 3 mg/kg, po; assay type: ADME, organism-based, Macaca fascicularis; set-up: dose 3 mg/kg, time infinity, route oral; conditions: in vivo
[24] = AUC (0 to infinity) in CD-1 mouse at 2 mg/kg, iv; assay type: ADME, organism-based; set-up: dose 2 mg/kg, route intravenous, time infinity; conditions: in vivo
Hippocampus [25] = experiment: Inhibition of amyloid beta oligomer-induced reduction of synaptic transmission in rat hippocampal slices assessed as increase in glutamatergic synaptic strength at 100 nM; assay type: functional, tissue-based
[26] = Intrinsic clearance in rat liver microsomes; assay type: ADME, Microsome; conditions: read-out: CLH
[27] = Elimination half life in cynomolgus monkey at 1 mg/kg, iv; assay type: ADME, organism-based, Macaca fascicularis; conditions: in vivo, read-out: beta t1/2 (converted)
[28] = AUC (0 to infinity) in Beagle dog at 1 mg/kg, po; assay type: ADME, organism-based, Canis lupus familiaris; set-up: dose 1 mg/kg, time infinity, route oral; conditions: in vivo
[29] = Elimination half life in Beagle dog at 1 mg/kg, iv; assay type: ADME, organism-based, Canis lupus familiaris; conditions: in vivo, read-out: beta t1/2 (converted)
Homo sapiens [30] = organism: Homo sapiens; experiment: Selectivity ratio, ratio of Ki for CatL (unknown origin) to Ki for Cal1 (unknown origin)
[31] = Oral bioavailability in Beagle dog at 1 mg/kg; assay type: ADME, organism-based, Canis lupus familiaris; conditions: in vivo
[32] = Plasma clearance in Beagle dog at 1 mg/kg, iv; assay type: ADME, organism-based, Canis lupus familiaris
[33] = Cmax in cynomolgus monkey at 3 mg/kg, po; assay type: ADME, organism-based, Macaca fascicularis; set-up: dose 3 mg/kg, route oral; conditions: in vivo
[34] = Metabolic stability in rat liver microsomes; assay type: ADME, Microsome
P-gp (ABCB1) = P-gp (ABCB1) (Homo sapiens, UniProt P08183); experiment: Substrate activity at P-gp (unknown origin) expressed in MDCK2 cells assessed as efflux ratio of permeability across basolateral to apical over apical to basolateral side; assay type: ADME, cell-based; conditions: MDCK-MDR1
Chain of P-gp (ABCB1) (P08183 whole entry): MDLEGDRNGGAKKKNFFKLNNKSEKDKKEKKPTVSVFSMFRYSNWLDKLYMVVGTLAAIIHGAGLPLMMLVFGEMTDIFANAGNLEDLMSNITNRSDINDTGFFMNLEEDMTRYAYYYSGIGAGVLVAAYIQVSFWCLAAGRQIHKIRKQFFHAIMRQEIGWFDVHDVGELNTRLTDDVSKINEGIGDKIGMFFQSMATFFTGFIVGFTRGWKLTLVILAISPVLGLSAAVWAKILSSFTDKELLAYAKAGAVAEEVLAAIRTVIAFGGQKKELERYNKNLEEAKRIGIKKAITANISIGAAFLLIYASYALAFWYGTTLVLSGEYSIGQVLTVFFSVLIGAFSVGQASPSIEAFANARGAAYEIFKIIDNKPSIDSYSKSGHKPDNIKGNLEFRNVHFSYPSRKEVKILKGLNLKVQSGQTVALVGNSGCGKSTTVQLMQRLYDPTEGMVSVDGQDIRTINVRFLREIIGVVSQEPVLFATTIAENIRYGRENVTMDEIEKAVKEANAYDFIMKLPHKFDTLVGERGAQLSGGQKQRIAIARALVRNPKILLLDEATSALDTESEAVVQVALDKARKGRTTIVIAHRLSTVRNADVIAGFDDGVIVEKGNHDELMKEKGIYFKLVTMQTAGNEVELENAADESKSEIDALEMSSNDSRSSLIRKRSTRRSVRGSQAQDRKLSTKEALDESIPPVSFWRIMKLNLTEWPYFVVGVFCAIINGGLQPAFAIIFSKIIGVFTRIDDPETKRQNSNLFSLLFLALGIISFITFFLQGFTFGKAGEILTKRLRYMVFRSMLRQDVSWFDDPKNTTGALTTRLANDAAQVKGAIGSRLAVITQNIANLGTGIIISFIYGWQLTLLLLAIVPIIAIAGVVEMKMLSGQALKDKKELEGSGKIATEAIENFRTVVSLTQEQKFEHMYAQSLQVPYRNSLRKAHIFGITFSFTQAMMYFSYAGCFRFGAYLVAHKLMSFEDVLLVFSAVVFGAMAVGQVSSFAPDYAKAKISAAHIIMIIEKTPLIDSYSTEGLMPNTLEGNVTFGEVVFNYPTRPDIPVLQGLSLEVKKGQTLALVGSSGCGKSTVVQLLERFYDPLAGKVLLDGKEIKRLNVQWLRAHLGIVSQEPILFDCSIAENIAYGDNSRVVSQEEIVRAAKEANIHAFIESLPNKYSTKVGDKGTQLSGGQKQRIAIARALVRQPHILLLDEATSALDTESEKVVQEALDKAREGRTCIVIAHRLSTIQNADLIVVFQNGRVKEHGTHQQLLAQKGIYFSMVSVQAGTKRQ

[35] = Metabolic stability in cynomolgus monkey hepatocytes; assay type: ADME, cell-based, Macaca fascicularis, Hepatocyte
[36] = Oral bioavailability in Sprague-Dawley rat at 2 mg/kg; assay type: ADME, organism-based; conditions: in vivo
[37] = Volume of distribution at steady state in Beagle dog at 1 mg/kg, iv; assay type: ADME, organism-based, Canis lupus familiaris; conditions: in vivo, read-out: Vdss
[38] = Elimination half life in CD-1 mouse at 2 mg/kg, po; assay type: ADME, organism-based; conditions: in vivo, read-out: beta t1/2 (converted)
[39] = Selectivity ratio, ratio of Ki for CatS (unknown origin) to Ki for Cal1 (unknown origin); conditions: Homo sapiens
[40] = AUC (0 to infinity) in CD-1 mouse at 2 mg/kg, po; assay type: ADME, organism-based; set-up: dose 2 mg/kg, route oral, time infinity; conditions: in vivo
[41] = Metabolic stability in rat hepatocytes; assay type: ADME, cell-based, Hepatocyte
[42] = Oral bioavailability in cynomolgus monkey at 3 mg/kg; assay type: ADME, organism-based, Macaca fascicularis; conditions: in vivo
[43] = Cmax in CD-1 mouse at 2 mg/kg, po; assay type: ADME, organism-based; set-up: dose 2 mg/kg, route oral; conditions: in vivo
[44] = Metabolic stability in human hepatocytes; assay type: ADME, cell-based, Hepatocyte
[45] = Metabolic stability in human liver microsomes; assay type: ADME, Microsome
[46] = Intrinsic clearance in human liver cytosol; assay type: ADME, subcellular; conditions: read-out: CLH
[47] = Elimination half life in Sprague-Dawley rat at 2 mg/kg, iv; assay type: ADME, organism-based; conditions: in vivo, read-out: beta t1/2 (converted)
[48] = Intrinsic clearance in rat liver microsomes; conditions: read-out: CLH
[49] = AUC (0 to infinity) in Sprague-Dawley rat at 2 mg/kg, po; assay type: ADME, organism-based; set-up: dose 2 mg/kg, time infinity, route oral; conditions: in vivo
[50] = Volume of distribution at steady state in CD-1 mouse at 2 mg/kg, iv; assay type: ADME, organism-based; conditions: in vivo, read-out: Vdss
[51] = Plasma clearance in cynomolgus monkey at 1 mg/kg, iv; assay type: ADME, organism-based, Macaca fascicularis
[52] = Oral bioavailability in CD-1 mouse at 2 mg/kg; assay type: ADME, organism-based; conditions: in vivo
Hippocampus [53] = experiment: Inhibition of NMDA-induced spectrin degradation in rat hippocampal slices; assay type: functional, tissue-based
[54] = AUC (0 to infinity) in Beagle dog at 1 mg/kg, iv; assay type: ADME, organism-based, Canis lupus familiaris; set-up: dose 1 mg/kg, time infinity, route intravenous; conditions: in vivo
[55] = Elimination half life in Beagle dog at 1 mg/kg, po; assay type: ADME, organism-based, Canis lupus familiaris; conditions: in vivo, read-out: beta t1/2 (converted)
[56] = Oral bioavailability in rat; assay type: ADME, organism-based; conditions: in vivo
[57] = Intrinsic clearance in cynomolgus monkey liver cytosol; assay type: ADME, subcellular, Macaca fascicularis; conditions: read-out: CLH

half-life [1]: 6 h | Stability [2]: Stable | fraction unbound [3]: 0.3 | Papp [4]: 9.4 ×10⁻⁶ cm/s | microsomal CLint [5]: 28 µL/min/mg | AUC(0-inf) [6]: 510 ng·h/mL | Stability [7]: Stable | half-life [8]: 1.3 h | Selectivity ratio (Homo sapiens [9]): 74 | Ki [10]: 130 nM | Vd [11]: 1.8 L/kg | AUC(0-inf) [12]: 1930 ng·h/mL | Stability [13]: Stable | Stability [14]: Stable | Cmax [15]: 530 ng/mL | Cmax [16]: 980 ng/mL | Vd [17]: 3.4 L/kg | clearance [18]: 17.3 mL/min/kg | Selectivity ratio (Homo sapiens [19]): 42 | clearance [20]: 2.17 mL/min/kg | Stability [21]: Stable | half-life [22]: 5.1 h | efflux ratio (BCRP (ABCG2)): 0.9 | AUC(0-inf) [23]: 220 ng·h/mL | AUC(0-inf) [24]: 15400 ng·h/mL | microsomal CLint [26]: < 23 µL/min/mg | half-life [27]: 2.3 h | AUC(0-inf) [28]: 1510 ng·h/mL | half-life [29]: 1.7 h | Selectivity ratio (Homo sapiens [30]): 42 | bioavailability [31]: 83.1% | clearance [32]: 10.2 mL/min/kg | Cmax [33]: 98 ng/mL | Stability [34]: Stable | efflux ratio (P-gp (ABCB1)): 10.5 | Stability [35]: Stable | bioavailability [36]: 99.6% | Vd [37]: 0.6 L/kg | half-life [38]: 5 h | Selectivity ratio [39]: > 100 | AUC(0-inf) [40]: 14500 ng·h/mL | Stability [41]: Stable | bioavailability [42]: 14.3% | Cmax [43]: 2300 ng/mL | Stability [44]: Stable | Stability [45]: Stable | microsomal CLint [46]: < 1 µL/min/mg | half-life [47]: 6.6 h | microsomal CLint [48]: < 23 µL/min/mg | AUC(0-inf) [49]: 1910 ng·h/mL | Vd [50]: 1 L/kg | clearance [51]: 33 mL/min/kg | bioavailability [52]: 93.5% | IC50 (Hippocampus [53]): 385 nM | AUC(0-inf) [54]: 1820 ng·h/mL | half-life [55]: 4.8 h
Structure (SMILES): O=C(NC1CC1)C(=O)C(Cc1ccccc1)NC(=O)[C@H]1CCC(=O)N1Cc1ccccc1 (some centres not stated)
inhibition (Hippocampus [25]): Active

bioavailability [56]: 45% | microsomal CLint [5]: 27 µL/min/mg | Selectivity ratio (Homo sapiens [9]): 22 | Ki [10]: 39 nM | Selectivity ratio (Homo sapiens [19]): 23 | microsomal CLint [26]: < 23 µL/min/mg | Selectivity ratio (Homo sapiens [30]): 15 | Selectivity ratio [39]: 103 | microsomal CLint [46]: > 70 µL/min/mg | microsomal CLint [57]: 185 µL/min/mg
Structure (SMILES): NC(=O)C(=O)C(Cc1ccccc1)NC(=O)[C@H]1CCC(=O)N1Cc1ccccc1 (mixture of isomers)
